In patent US9872861B2, “Methods of treatment using selective Bcl-2 inhibitors” (AbbVie Inc., priority 2010, dated 2018):
Marks after values point to notes of the source that are not given here.

Experiments:
[1] = tested on: IFNα-induced (NZB×NZW)F1 lupus model; assay: IFNα-induced (NZB×NZW)F1 lupus model: proteinuria, survival, lymphopenia; format: in vivo, (NZB×NZW)F1 mice
Description: Treatment was initiated in a late-prophylactic mode (7 days after IFNα adenovirus). […] All treatment groups were administered treatment 7 days after adenovirus injection. Following adenovirus injection, mice were monitored weekly for proteinuria (PU) using Albustix test strips (VWR). Severe PU was defined by consecutive weekly measurements of PU≧300 mg/dl. When mice became moribund, they were sacrificed according to Institutional Animal Care and Use Committee protocols.

[2] = tested on: peripheral blood immune cells and platelets; assay: Peripheral blood lymphocytes and platelets in (NZB×NZW)F1 mice, Cell Dyn hematology analyzer; format: in vivo; settings: (NZB×NZW)F1 mice, four days, orally every day
[3] = tested on: IgG anti-ds DNA; assay: Anti-ds DNA titer by ELISA in IFNα-accelerated lupus model; format: in vivo, (NZB×NZW)F1 mice; settings: interferon-induced model, 3-30 mg/kg
Description: (§1) An additional experiment was performed to determine the effects of treatment with a selective Bcl-2 inhibitor on anti-DS DNA titer in the Interferon-α accelerated lupus model. Anti-dsDNA antibody levels were measured by ELISA and assigned arbitrary activity unit concentrations per ml relative to a standard plasma pool derived from proteinuric 9-10 month old NZB/W mice. ELISA assay was performed by coating plates with poly-L-lysine followed by calf-thymus DNA. Diluted mouse plasma was incubated and developed using anti-IgG HRP conjugated antibodies and the mean OD from duplicate wells was compared to a titrated standard curve of pooled high tittered anti-dsDNA plasma. The undiluted standard plasma pool was arbitrarily assigned a value of 1000 anti-dsDNA Units/ml. A linear regression analysis was then used to calculate the relative units of a given sample multiplied by the given dilution factor. The results of this experiment are illustrated in FIG. 10.

[4] = tested on: IgG anti-ds DNA; assay: Anti-ds DNA titer by ELISA in spontaneous lupus model; format: in vivo, (NZB×NZW)F1 mice
Description: as §1, with “It is believed that Compound 1 triggers apoptosis” for “An additional experiment was performed to determine the effects”, “lymphocytes that are responsible for production of antibodies, which play” for “treatment with”, “role” for “selective Bcl-2 inhibitor on anti-DS DNA titer”, “progression of systemic” for “Interferon-α accelerated”, “erythematosus, as well as Sjogren's Syndrome. […] Specifically, anti-dsDNA” for “model. Anti-dsDNA”, “factor.” for “factor. The results of this experiment are illustrated in FIG. 10.”

[5] = tested on: FL5.12-Bcl-XL cells; assay: Cellular efficacy in FL5.12 cells dependent on Bcl-XL; format: cell-based, murine; settings: Mus musculus, 3% FBS
[6] = tested on: FL5.12-Bcl-2 cells; assay: Cellular efficacy in FL5.12 cells dependent on Bcl-2; format: cell-based, murine; settings: Mus musculus, 3% FBS
[7] = Exposure in spontaneous lupus model; format: in vivo; settings: 30 mg/kg dosing
Source text: When mice became moribund, they were sacrificed according to Institutional Animal Care and Use Committee protocols.

[8] = tested on: RS4;11 cells; assay: Cellular efficacy in Bcl-2 dependent tumor cell line RS4;11; format: cell-based, human; settings: 10% HS
[9] = tested on: submandibular salivary gland; assay: Salivary gland histology in spontaneous murine model of lupus; format: in vivo, (NZB×NZW)F1 mice
Source text: It is recognized within the art that Sjogren's Syndrome is a chronic disease state that affects the moisture-producing glands of the body, including the salivary glands of the mouth. As such, it was theorized that penetration of the selective Bcl-2 inhibitors into the salivary glands of patients with Sjogren's Syndrome could provide an effective treatment to decrease lymphocytes associated with Sjogren's Syndrome, without the dose-limiting thrombocytopenia associated with non-selective Bcl-2 inhibition. A histologic assessment of the penetration of selective Bcl-2 inhibitors into the salivary glands of spontaneous murine model for lupus was performed to test this theory. The spontaneous murine model of lupus, as described in Example 3, was used for the histological assessment described herein. Specifically, sublingual and submandibular salivary glands were fixed in 10% neutral-buffered formalin and paraffin embedded. Five μm sections were H&E stained and semiquantitatively scored (0-4) by an experienced pathologist for inflammatory cell infiltrates. Salivary gland infiltrate scoring categories: (1) 3 or fewer small periductular foci, (2) 3 or more medium sized foci, (3) several extensive foci, and (4) coalescing to diffuse infiltrates. The histologic assessment of the submandibular tissue sections is illustrated in FIG. 11.

[10] = molecular target: Mcl-1 (Homo sapiens, UniProt Q07820); assay: TR FRET competitive binding affinity, Mcl-1; settings: read-out: Target Affinity TR FRET, Mcl-1
Mcl-1, sequence (Q07820 whole entry): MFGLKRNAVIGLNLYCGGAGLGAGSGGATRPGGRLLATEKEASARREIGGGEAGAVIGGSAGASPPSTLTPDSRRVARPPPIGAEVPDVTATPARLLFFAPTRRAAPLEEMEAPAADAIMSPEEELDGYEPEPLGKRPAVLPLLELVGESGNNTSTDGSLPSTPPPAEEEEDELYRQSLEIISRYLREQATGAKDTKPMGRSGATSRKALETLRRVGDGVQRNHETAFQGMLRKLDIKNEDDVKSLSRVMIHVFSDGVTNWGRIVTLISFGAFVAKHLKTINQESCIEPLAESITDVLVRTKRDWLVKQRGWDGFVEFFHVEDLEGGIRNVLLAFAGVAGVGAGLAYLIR
Description: A comparison of the binding affinity for each of the compounds was performed to determine target affinity, as measured by Time-Resolved Fluorescence Resonance Energy Transfer (TR FRET).

[11] = tested on: H146 cells; assay: Cellular efficacy in Bcl-XL dependent tumor cell line H146; format: cell-based; settings: Homo sapiens, NCI-H146; 10% HS

CC1(C)CCC(CN2CCN(c3ccc(C(=O)NS(=O)(=O)c4ccc(NCC5CCOCC5)c([N+](=O)[O-])c4)c(Oc4cnc5[nH]ccc5c4)c3)CC2)=C(c2ccc(Cl)cc2)C1 [Compound 1, 4-(4-{[2-(4-chlorophenyl)-4,4-dimethylcyclohex-1-en-1-yl]methyl}piperazin-1-yl)-N-({3-nitro-4-[(tetrahydro-2H-pyran-4-ylmethyl)amino]phenyl}sulfonyl)-2-(1H-pyrrolo[2,3-b]pyridin-5-yloxy)benzamide]
lymphopenia in the blood throughout treatment ([1]; 30 mg/kg): > 70% | % Mice with PU < 300 mg/dL ([1]; 30 mg/kg/day orally): 77* % | % Survival ([1]; 30 mg/kg/day orally): 82* % | onset of severe PU and survival ([1]; 30 and 100 mg/kg): significantly delayed the onset of severe PU and prolonged survival | lymphocytes in peripheral blood [2]: dose dependent decrease in lymphocytes | platelet counts [2]: maintaining normal platelet counts | anti-ds DNA titer [3]: did not significantly inhibit | anti-ds DNA titer ([4]; spontaneous model, 1, 3 and 10 mg/kg): no appreciable reduction | anti-ds DNA titer vs vehicle control ([4]; spontaneous model, week 40, 30 and 100 mg/kg): significantly inhibited the increase in anti-ds DNA titer | EC50 [5]: 261 nM | EC50 [6]: 4 nM | exposure [7]: 40000 ng·h/mL | EC50 [8]: 12 nM | submandibular salivary gland histology scores vs untreated ([9]; 30 mg/kg and 100 mg/kg): statistically significant improvement | salivary gland histology score ([9]; 30 mg/kg and 100 mg/kg, scale 0-4, untreated mice 3-4): 1-2 | salivary gland infiltrates ([9]; 30 or 100 mg/kg): small, discrete and less frequent | Ki [10]: > 440 nM | EC50 [11]: 3600 nM
